Assay [1] addresses ALK (L1196M) (Homo sapiens, UniProt Q9UM73, L1196M). In words: Kinase inhibitory activity (33P-ATP filter-binding, scintillation counting). The assay is classed as biochemical. How it is done:
(§1) The measurement of the kinase inhibitory activity was performed in the following method.
(§2) 2. An evaluation compound (DMSO solution) and Mg/ATP were added to perform the reaction.
(§3) 3. After about 40 minutes at room temperature, 10 μL of 0.5% phosphoric acid was added to complete the reaction.
(§4) 4. The reaction solution was divided by 0.5% 10 μL and spotted on a P30 filtermat.
(§5) 5. […] The reaction solution was washed once with methanol and then dried and analyzed with scintillation counting to measure IC50 values.

In assay [2] the target is EGFR (del19/L858R/T790M) (Homo sapiens, UniProt P00533, T790M, form not given). The description is as above. Type of assay: biochemical. On the procedure:
as §1, §2, §3, §4, §5

Assay [3] addresses EGFR (del19/T790M/C797S) (Homo sapiens, UniProt P00533, C797S/DEL746-750/T790M). The description is as above. The assay is classed as biochemical. How it is done:
as §1, §2, §3, §4, §5

Assay [4] concerns H2228 (EML4-ALK v3). In words: Cancer cell growth inhibitory effect (MTT assay). Type of assay: cell-based. To be noted: Homo sapiens, NCI-H2228, 72 hours, read-out: H2228 cell growth inhibition IC50. How it is done:
(§6) With respect to the compounds obtained in Examples, a growth inhibitory effect of ALK mutation cancer cells and EGFR mutation Ba/F3 cancer cell lines was measured. The anti-cancer efficacy activity measurement was performed by the following method using an ALK mutation cell line such as H3122 (EML4-ALK v1), H2228 (EML4-ALK v3), etc. and an EGFR mutation Ba/F3 stable cell line.
(§7) 2×10^5 cells were seeded on a 96-well plate. After 24 hours, each of the drugs was treated in a dose dependent manner, and incubated after 72 hours, a 15 μL MTT reagent reacted for 4 hours, and then 100 μL 10% SDS was added and incubated for 24 hours. […] MTT result analysis measured the IC50 values through prism software.
For orientation: Formazan colour is commonly taken as a measure of viable cells.

Assay [5] concerns H3122 (EML4-ALK v1). In words: Cancer cell growth inhibitory effect (MTT assay). Type of assay: cell-based. To be noted: Homo sapiens, NCI-H3122, 72 hours, read-out: H3122 cell growth inhibition IC50. How it is done: as §6, §7
For assay [6], the target named is T1, EGFR mutation Ba/F3 stable cell line DEL19/T790M/C797S (Homo sapiens, UniProt P00533, DEL746-750/T790M/C797S, cells depend on it).
T1 construct: "del19, #32062; del19+T790M, #32072)
In words: Cancer cell growth inhibitory effect (MTT assay). The assay is classed as cell-based, Murine. The note with it: 72 hours, read-out: DEL19/T790M/C797S cell growth inhibition IC50. How it is done: as §6
Ba/F3 stable cell line construction: Murine lymphoid cells performed IL-3 dependent growth. […] A stable cell line was constructed using this principle even without puromycin selection. Briefly, each construction was infected on Ba/F3, and after 48 hours, IL-3 was removed by media exchange and cells were cultured. However, in the case of the wild type EGFR, puromycin selection was performed.
as §7

Some results are limits rather than exact numbers.

With `COc1cc(N2CCOCC2)c(-c2cnn(C)c2)cc1Nc1ncc(Cl)c(Nc2ccccc2N(C)S(C)(=O)=O)n1` [Example 1, N-(2-((5-chloro-2-((2-methoxy-5-(1-methyl-1H-pyrazol-4-yl)-4-morpholinophenyl)amino)pyrimidine-4-yl)amino)phenyl)-N-methylmethanesulfonamide], the IC50 was less than 50 nM in assay [1]; less than 50 nM in assay [2]; less than 50 nM in assay [3]; less than 100 nM in assay [4]; 50 to 100 nM in assay [5]; less than 100 nM in assay [6].
Turning to `COc1cc(N2CC3(COC3)C2)c(-c2cnn(C)c2)cc1Nc1ncc(Cl)c(Nc2ccccc2NS(C)(=O)=O)n1` [Example 9, N-(2-((5-chloro-2-((2-methoxy-5-(1-methyl-1H-pyrazol-4-yl)-4-(2-oxa-6-azaspiro[3.3]heptane-6-yl)phenyl)amino)pyrimidine-4-yl)amino)phenyl)methanesulfonamide], the IC50 in assay [1] is less than 50 nM; in assay [2] it was less than 50 nM; in assay [3] it was less than 50 nM; in assay [4], 50 to 100 nM; in assay [5] it was 50 to 100 nM; in assay [6], less than 100 nM.
Turning to `COc1cc(N2CCSCC2)c(-c2cnn(C)c2)cc1Nc1ncc(Cl)c(Nc2ccccc2N(C)S(C)(=O)=O)n1` [Example 3], the IC50 was less than 50 nM in assay [1]; less than 50 nM in assay [2]; less than 50 nM in assay [3]; less than 100 nM in assay [4]; 50 to 100 nM in assay [5]; less than 100 nM in assay [6].
`COc1cc(N2CCSCC2)c(-c2cnn(C)c2)cc1Nc1ncc(Cl)c(Nc2ccccc2NS(C)(=O)=O)n1` [Example 7, N-(2-((5-chloro-2-((2-methoxy-5-(1-methyl-1H-pyrazol-4-yl)-4-thiomorpholinophenyl)amino)pyrimidine-4-yl)amino)phenyl)methanesulfonamide]: the IC50 is less than 50 nM in assay [1]; less than 50 nM in assay [2]; less than 50 nM in assay [3]; less than 100 nM in assay [4]; 50 to 100 nM in assay [5]; less than 100 nM in assay [6].
For `COc1cc(N2CCN(C)CC2)c(-c2cnn(C)c2)cc1Nc1ncc(Cl)c(Nc2ccccc2N(C)S(C)(=O)=O)n1` [Example 4], the IC50 in assay [1] is less than 50 nM; in assay [2], less than 50 nM; in assay [3], 50 to 100 nM; in assay [4] it was 50 to 100 nM; in assay [5], 50 to 100 nM; in assay [6], 50 to 100 nM.
In the case of `COc1cc(N2CCOCC2)c(-c2cnn(C)c2)cc1Nc1ncc(Cl)c(Nc2ccccc2NS(C)(=O)=O)n1` [Example 2, N-(2-((5-chloro-2-((2-methoxy-5-(1-methyl-1H-pyrazol-4-yl)-4-morpholinophenyl)amino)pyrimidine-4-yl)amino)phenyl)methanesulfonamide], the IC50 in assay [1] is less than 50 nM; in assay [4] it was less than 100 nM; in assay [5], 50 to 100 nM.
Consider `COc1cc(N2CC3(COC3)C2)c(-c2cnn(C)c2)cc1Nc1ncc(Cl)c(Nc2ccccc2N(C)S(C)(=O)=O)n1` [Example 5, N-(2-((5-chloro-2-((2-methoxy-5-(1-methyl-1H-pyrazol-4-yl)-4-(2-oxa-6-azaspiro[3.3]heptane-6-yl)phenyl)amino)pyrimidine-4-yl)amino)phenyl)-N-methylmethanesulfonamide], for which the IC50 in assay [1] is less than 50 nM; in assay [2], less than 50 nM; in assay [3], less than 50 nM; in assay [4], less than 100 nM; in assay [5] it was 50 to 100 nM; in assay [6], less than 100 nM.
Take `COc1cc(N2CC3(CN(C)C3)C2)c(-c2cnn(C)c2)cc1Nc1ncc(Cl)c(Nc2ccccc2N(C)S(C)(=O)=O)n1` [Example 6, N-(2-((5-chloro-2-((2-methoxy-5-(1-methyl-1H-pyrazol-4-yl)-4-(6-methyl-2,6-diazaspiro[3.3]heptane-2-yl)phenyl)amino)pyrimidine-4-yl)amino)phenyl)-N-methylmethanesulfonamide]: the IC50 in assay [1] is less than 50 nM; in assay [2], less than 50 nM; in assay [3], 50 to 100 nM; in assay [4] it was 50 to 100 nM; in assay [5] it was 50 to 100 nM; in assay [6], 50 to 100 nM.
As to `COc1cc(N2CCN(C)CC2)c(-c2cnn(C)c2)cc1Nc1ncc(Cl)c(Nc2ccccc2NS(C)(=O)=O)n1` [Example 8, N-(2-((5-chloro-2-((2-methoxy-5-(1-methyl-1H-pyrazol-4-yl)-4-(4-methylpiperazine-1-yl)phenyl)amino)pyrimidine-4-yl)amino)phenyl)methanesulfonamide], the IC50 is less than 50 nM in assay [1]; 50 to 100 nM in assay [2]; 50 to 100 nM in assay [3]; more than 500 nM in assay [4]; more than 500 nM in assay [5]; 50 to 100 nM in assay [6].
Consider `COc1cc(N2CC3(CN(C)C3)C2)c(-c2cnn(C)c2)cc1Nc1ncc(Cl)c(Nc2ccccc2NS(C)(=O)=O)n1` [Example 10, N-(2-((5-chloro-2-((2-methoxy-5-(1-methyl-1H-pyrazol-4-yl)-4-(6-methyl-2,6-diazaspiro[3.3]heptane-2-yl)phenyl)amino)pyrimidine-4-yl)amino)phenyl)methanesulfonamide], for which the IC50 in assay [1] is less than 50 nM; in assay [2], 50 to 100 nM; in assay [3], 50 to 100 nM; in assay [4], more than 500 nM; in assay [5], more than 500 nM; in assay [6] it was 50 to 100 nM.
Take `C=CC(=O)Nc1cc(Nc2nccc(-c3cn(C)c4ccccc34)n2)c(OC)cc1N(C)CCN(C)C` [Osimertinib, osimertinib, reference compound]: the values for the IC50 in assay [1], in assay [4] and in assay [5] were 50 to 100 nM, more than 500 nM and more than 500 nM, respectively.

The values above are taken from patent US12421221B2 (ONCOBIX CO., LTD., priority 2019, dated 2025).
